Measured values: ChEMBL document CHEMBL4138276, “Hamigerans R and S: Nitrogenous Diterpenoids from the New Zealand Marine Sponge Hamigera tarangaensis” (J Nat Prod, 2018)
Calls of active or inactive are those of the source. The rule behind the calls is not given here.

System: HL-60
Experiment: Cytotoxicity against human HL60 cells assessed as inhibition of cell proliferation at <10 uM after 48 hrs by MTT assay
Format: functional, cell-based

Row | Compound | inhibition
1 | Cc1cc2c3c(c1Br)O[C@]14N[C@]3(Oc3c(Br)c(C)cc(c31)[C@H]1[C@@H](C(C)C)CC[C@@]1(C)CC4=O)C(=O)C[C@]1(C)CC[C@H](C(C)C)[C@H]21 | inactive
2 | Cc1cc(O)c2c(c1)[C@H]1[C@@H](C(C)C)CC[C@@]1(C)C(=O)C2=O | inactive
3 | COC(=O)[C@@]1(O)C(=O)[C@]2(C)CC[C@H](C(C)C)[C@@H]2c2cc(C)cc(O)c21 | inactive
4 | Cc1cc([C@H]2[C@@H](C(C)C)CC[C@@]2(C)CC(=O)O)c(C#N)c(O)c1Br | inactive
5 | COC(=O)c1c([C@H]2[C@@H](C(C)C)CC[C@@]2(C)CC(=O)O)cc(C)c(Br)c1O | inactive
6 | Cc1cc(O)c2c(c1)[C@H]1[C@@H](C(C)C)CC[C@@]1(C)[C@@H](O)[C@H](O)C2=O | inactive
7 | COC(=O)[C@]1(O)C(=O)c2c(O)c(Br)c(C)c(Br)c2[C@H]2[C@@H](C(C)C)CC[C@]21C | inactive
